{
  "source": "patent US11672964B2",
  "about": "“Bioactive components conjugated to substrates of microneedle arrays” (University of Pittsburgh—Of the Commonwealth System of …, priority 2015, dated 2023)",
  "key": {"epidermal cells": {"test_system": "epidermal cells", "settings": "pyramidal CMC-microneedle array, 5 mg/g of CMC, arrays removed after 5 minutes, 72 hours of exposure", "method": "Cytoxan® was integrated at a concentration of 5 mg/g of CMC, enabling delivery of approximately about 140 μg per array. This is a therapeutically relevant concentration based on the area of skin targeted, yet well below levels associated with systemic toxicities. Living human skin organ cultures were used to assess the cytotoxicty of Cytoxan®. Cytoxan® was delivered by application of arrays to skin explants as we previously described. Arrays and residual material were removed 5 minutes after application, and after 72 hours of exposure, culture living skin explants were cryo-sectioned and fixed. Apoptosis was evaluated using green fluorescent TUNEL assay (In Situ Cell Death Detection Kit, TMR […], Roche, cat #:11-684-795-910)."}, "B16 melanoma": {"test_system": "B16 melanoma", "experiment": "Treatment of established B16 skin tumors with MNAs", "settings": "MNAs once weekly for three weeks; for survival: combination: long term survival through day 70", "quoted_text": "B16 skin tumors were established in normal mice by injection. Visible established cutaneous tumors were treated once weekly for three weeks with MNAs containing either doxorubicin alone, Poly(I:C) alone, or doxorubicin and Poly(I:C) incorporated into the same MNA. […] Tumor growth and survival were measured regularly for the duration of the study."}, "human skin": {"test_system": "human skin", "experiment": "Apoptosis in human skin at the chosen MNA doxorubicin dose", "settings": "MNA dose chosen for the tumor study"}},
  "data": [
    {"compound": "O=P1(N(CCCl)CCCl)NCCCO1", "note": "(stereo not drawn) [Cytoxan®, cyclophosphamide]", "values": [
      {"measurement": "apoptosis (TUNEL)", "setting": "epidermal cells", "value": "extensive apoptosis of epidermal cells"}
    ]},
    {"compound": "COc1cccc2c1C(=O)c1c(O)c3c(c(O)c1C2=O)C[C@@](O)(C(=O)CO)C[C@@H]3O[C@H]1C[C@H](N)[C@H](O)[C@H](C)O1", "note": "[doxorubicin]", "values": [
      {"measurement": "tumor growth", "setting": "B16 melanoma", "value": "slowed tumor growth"},
      {"measurement": "survival", "setting": "B16 melanoma", "value": 30, "unit": "%"},
      {"measurement": "apoptosis and necrosis in human skin", "setting": "human skin", "value": "induces apoptosis in human skin without causing necrosis"}
    ]},
    {"compound": "Poly(I:C)", "values": [
      {"measurement": "tumor growth", "setting": "B16 melanoma", "value": "slowed tumor growth"},
      {"measurement": "survival", "setting": "B16 melanoma", "value": 50, "unit": "%"}
    ]}
  ]
}
